# Results taken from patent publication US20100323902A1, “Live-cell signals of pathogen intrusion and methods thereof” (priority 2007, published 2010).
# Read-outs that look alike come from different tables or passages of the source.
# How the values were obtained:
# [1] = tested on: adenovirus; conditions: cited from earlier work
# [2] = tested on: adenovirus; assay: RWG biosensor DMR assay: modulation of the adenovirus-induced response in HeLa cells; assay type: cell-based; conditions: HeLa cells pretreated 1 h with modulator (10 microM latrunculin A, 10 microM cytochalasin B, 40 microM DIPC), then adenovirus MOI 6,000; assay time about 1 hour
# Source text: Reagents—Latrunculin A and cytochalasin B were purchased from Sigma Chemical Co. (St. Louis, Mo.). Cell permeable dynamin inhibitor peptide control (DIPC) was obtained from Tocris Chemical Co. (St. Louis, Mo.). Adenoviral particles (Ad-CMV-eGFP) were purchased from Vector Biolabs (Philadelphia, Pa.). Cell-culture-ready Corning® Epic™ 96well biosensor microplates were obtained from Corning Inc (Corning, N.Y.). HeLa cell line was obtained from Americal Type Cell Culture.
# Cell Culture—HeLa cells were grown in Earle minimum Essential medium (EMEM) supplemented with 10% fetal bovine serum (FBS), 4.5 g/liter glucose, 2 mM glutamine, and antibiotics. ˜10^4 HeLa cells suspended in 200 μl the appropriate medium containing 10% FBS were placed in each well of a 96well biosensor microplate, and were cultured at 37° C. under air/5% CO2 until about 95% confluency was reached.
# Optical biosensor measurements—Corning® Epic® angular interrogation system with transverse magnetic or p-polarized TM0 mode (as described in, for example, U.S. Patent Publication No. US-2004-0263841, U.S. patent application Ser. No. 11/019,439, filed Dec. 21, 2004, and U.S. Patent Publication No. US-2005-0236554.) was used. […] Afterwards, the sensor microplate containing cells was placed into the optical system, and the cell responses were recorded before and after addition of a solution. […]
# [3] = tested on: Akt; conditions: 25 nM epinephrine for 1 hr vs untreated cells
# Description: (§1) Thus, A431 cells were infected overnight in serum-free medium with various doses of Adenovirus-GFP (MOI of about 1, c, about 10, b or about 500, a). As a negative control A431 cells were treated only with serum-free medium (mock control bar “d”). At 20 hrs post infection, the infected and non-infected A431 cells were washed and then stimulated with 32 nM EGF for 30 min (FIG. 8A), 25 nM epinephrine for 1 hr (FIG. 8B), or serum-free medium for 1 hr at ambient room temperature (column e in FIGS. 8A and 8B, cell non infected and untreated). Cells extracts were then prepared according to the recommended protocol and analyzed using Mercator™ phosphoarray assay. […] The letter labeled bars (a-e) represent: a=EFG/−adenovirus MOI 500, b=EFG/adenovirus MOI 10, c=EFG/adenovirus MOI 1, d=EFG-mock, and e=untreated cells. […] The letter labeled bars (a-e) are as above for FIG. 8A.
# [4] = tested on: EGFR; assay: Mercator Phosphoarray assay in non-infected A431 cells, EGFR; assay type: cell-based, Human
# Description: as §1
# [5] = tested on: FAK; assay: Mercator Phosphoarray assay in non-infected A431 cells, FAK; assay type: cell-based, Human
# Description: as §1
# [6] = tested on: Paxillin; assay: Mercator Phosphoarray assay in non-infected A431 cells, Paxillin; assay type: cell-based, Human
# Description: as §1
# [7] = tested on: A431 cells; assay: Marker-induced DMR signal in A431 cells (RWG biosensor); assay type: cell-based, Human
# Description: Cell Culture—Human epidermoid carcinoma A431 cells were obtained from American Type Cell Culture. For A431 cell culturing, A431 cells were grown in Dulbecco's modified Eagle's medium (DMEM) supplemented with 10% fetal bovine serum (FBS), 4.5 g/liter glucose, 2 mM glutamine, and antibiotics. about 1-2×10^4 cells at passage 3 to 5 suspended in 50 μl the growth medium were placed in each well. After cell seeding, the cells were cultured at 37° C. under air/5% CO2 until about 95% confluency was reached (about 2 days). Afterwards, the serum medium was replaced with the serum-free DMEM medium, and at the same time adenovirus particles were introduced. The resultant cells were subject to continuous culturing for overnight. […]
# The doses of virus (multiplicity of infection (MOI)) used in this experiment were comprised of from 0 to about MOI 6,000. At 20 hrs post infection (PI) the A431 cells were washed with HBSS and real time kinetics of the cell responses were recorded before and after stimulation with 32 nM EGF (targeting EGFR and MAPK pathway and cell adhesion pathway), 25 nM epinephrine (targeting Gs pathway and cell adhesion pathway), 32 nM of bradykinin (targeting Gq and Gs pathway), 25 microM of SFFLR-amide or 25 microM of SLIGKV-amide (both targeting Gq and G12/13 pathways) using the Epic® system and illustrated in FIGS. 5 to 7. […]
# [8] = 25 nM epinephrine for 1 hr vs untreated cells
# [9] = 32 nM EGF for 30 min vs untreated cells
molecule,measurement,setting,value
CC[C@]1(O)C[C@@H]2CN(CCc3c([nH]c4ccccc34)[C@@](C(=O)OC)(c3cc4c(cc3OC)N(C)[C@H]3[C@@](O)(C(=O)OC)[C@H](OC(C)=O)[C@]5(CC)C=CCN6CC[C@]43[C@@H]65)C2)C1 [vinblastin],trafficking of adenovirus in cells,[1],block the trafficking of adenovirus
"C/C1=C/C(=O)O[C@@H]2C[C@@H](CC[C@H](C)/C=C\C=C\CC1)O[C@@](O)([C@@H]1CSC(=O)N1)C2 [latrunculin A, Latrunculin A]",adenovirus-induced P-DMR signal,[2],clearly inhibited the P-DMR signal
C=C1[C@@H](C)[C@H]2[C@H](Cc3ccccc3)NC(=O)[C@]23OC(=O)/C=C/[C@H](O)CCC[C@@H](C)C/C=C/[C@H]3[C@@H]1O [cytochalasin B],adenovirus-induced P-DMR signal,[2],clearly inhibited the P-DMR signal
same,trafficking of adenovirus in cells,[1],block the trafficking of adenovirus
"CNC[C@H](O)c1ccc(O)c(O)c1 [epinephrine, Epinephrine]",phosphorylation level of Akt,[3],do not seem to be altered
same,phosphorylation level of EGFR,[4]; [8],do not seem to be altered
same,phosphorylation level of FAK,[5]; [8],do not seem to be altered
same,phosphorylation level of paxillin,[6]; [8],decreases
same,DMR signal upon stimulation,[7],dose-dependent DMR signal
"EGF: natural ligand of epidermal growth factor receptor (NSDSECPLSHDGYCLHDGVCMYIEALDKYACNCVVGYIGERCQYRDLKWWELR; Epidermal growth factor; UniProt P01133 971-1023, looked up)",phosphorylation level of EGFR,[4]; [9],increased significantly
same,phosphorylation level of FAK,[5]; [9],increased significantly
same,phosphorylation level of paxillin,[6]; [9],only mildly increased
same,DMR signal upon stimulation,"[7]; A431 cells, quiescent for EGF, bradykinin, ATP and thrombin",DMR signal with three distinct and sequential phases
